Test results: the NIST ThermoML archive (doi:10.1016/j.jct.2006.07.015)

Columns and labels:
[1] = xn = mol fraction of the nth substance listed; settings: 298.15 K, 101 kPa, Liquid; for viscosity: Capillary tube (Ostwald / Ubbelohde) method; for speed of sound: Sing-around technique in a fixed-path interferometer; for mass density: Vibrating tube method
[2] = 298.15 K, 101.33 kPa, Liquid; for viscosity: Capillary tube (Ostwald / Ubbelohde) method; for speed of sound: Sing-around technique in a fixed-path interferometer; for mass density: Vibrating tube method

CCCCCCCO [heptan-1-ol] + CC1CCCCC1
[1]
Settings | mass density [kg/m3] | speed of sound [m/s] | viscosity [mPa·s]
x1 = 0.1 | 770.2 | – | –
x1 = 0.1009 | – | – | 0.797
x1 = 0.1031 | – | 1217 | –
x1 = 0.1506 | 773.03 | – | –
x1 = 0.2001 | 775.76 | – | –
x1 = 0.2007 | – | – | 0.956
x1 = 0.2024 | – | 1225 | –
x1 = 0.3006 | – | 1236 | –
x1 = 0.3011 | 781.37 | – | 1.174
x1 = 0.4 | 786.91 | – | –
x1 = 0.4011 | – | – | 1.461
x1 = 0.4033 | – | 1247 | –
x1 = 0.449 | 789.61 | – | –
x1 = 0.4501 | – | – | 1.64
x1 = 0.4973 | – | 1259 | –
x1 = 0.4985 | – | – | 1.839
x1 = 0.5002 | 792.45 | – | –
x1 = 0.5394 | – | 1264 | –
x1 = 0.5497 | 795.18 | – | –
x1 = 0.5999 | 797.98 | – | –
x1 = 0.6026 | – | 1273 | –
x1 = 0.6033 | – | – | 2.384
x1 = 0.6503 | 800.71 | – | –
x1 = 0.7007 | 803.42 | – | –
x1 = 0.7045 | – | 1287 | –
x1 = 0.7417 | – | – | 3.369
x1 = 0.7972 | – | 1300 | –
x1 = 0.7985 | – | – | 3.875
x1 = 0.8 | 808.68 | – | –
x1 = 0.8495 | 811.24 | – | –
x1 = 0.8951 | – | 1315 | –
x1 = 0.8998 | 813.8 | – | –
x1 = 0.9006 | – | – | 4.922
x1 = 1 | – | 1329 | –

CC1CCCCC1 [methylcyclohexane] + CCCCCCCO
Settings | speed of sound [m/s]
[1], x2 = 0 | 1215

ClC(Cl)=C(Cl)Cl [tetrachloroethene] + CC1CCCCC1
[1]
Settings | mass density [kg/m3] | speed of sound [m/s] | viscosity [mPa·s]
x1 = 0.0999 | – | – | 0.69
x1 = 0.1007 | 834.38 | – | –
x1 = 0.1924 | 900.06 | – | –
x1 = 0.2 | 905.67 | – | –
x1 = 0.2068 | – | – | 0.698
x1 = 0.2439 | – | 1184 | –
x1 = 0.2504 | 942.96 | – | –
x1 = 0.2505 | – | – | 0.701
x1 = 0.2982 | – | – | 0.705
x1 = 0.3011 | 981.34 | – | –
x1 = 0.3029 | 982.75 | – | –
x1 = 0.3944 | – | – | 0.716
x1 = 0.4001 | 1058.76 | – | –
x1 = 0.4173 | – | 1156 | –
x1 = 0.4897 | – | 1146 | –
x1 = 0.4996 | – | – | 0.728
x1 = 0.5009 | 1141.4 | – | –
x1 = 0.5494 | – | 1136 | –
x1 = 0.5503 | 1183.38 | – | –
x1 = 0.5984 | 1225.08 | – | –
x1 = 0.6016 | – | – | 0.746
x1 = 0.6496 | 1270.62 | – | –
x1 = 0.6549 | – | 1116 | –
x1 = 0.7007 | – | – | 0.765
x1 = 0.7014 | 1317.87 | – | –
x1 = 0.7372 | – | 1098 | –
x1 = 0.7786 | – | 1089 | –
x1 = 0.7995 | 1410.5 | – | –
x1 = 0.8008 | – | – | 0.789
x1 = 0.8104 | – | 1082 | –
x1 = 0.8418 | – | 1075 | –
x1 = 0.8489 | 1458.9 | – | –
x1 = 0.8693 | – | 1069 | –
x1 = 0.8986 | 1508.67 | – | –
x1 = 0.8996 | – | – | 0.816
x1 = 0.9188 | – | 1057 | –
x1 = 1 | – | 1039 | –

CCCCCCCO [heptan-1-ol]
[2]
Settings | mass density [kg/m3] | speed of sound [m/s] | viscosity [mPa·s]
– | 818.77 | 1329 | 6.041

ClC(Cl)=C(Cl)Cl [tetrachloroethene] + CCCCCCCO
[1]
Settings | mass density [kg/m3] | speed of sound [m/s] | viscosity [mPa·s]
x2 = 0 | – | 1039 | –
x2 = 0.093 | 1514.31 | – | –
x2 = 0.0967 | – | 1050 | –
x2 = 0.102 | – | – | 0.995
x2 = 0.1957 | – | 1069 | –
x2 = 0.1994 | 1409 | – | –
x2 = 0.2118 | – | – | 1.222
x2 = 0.2492 | – | 1082 | –
x2 = 0.2498 | – | – | 1.32
x2 = 0.2502 | 1361.6 | – | –
x2 = 0.2952 | – | 1093 | –
x2 = 0.2986 | 1318.1 | – | –
x2 = 0.3015 | – | – | 1.457
x2 = 0.3905 | – | 1120 | –
x2 = 0.3979 | 1233.3 | – | –
x2 = 0.3997 | – | – | 1.795
x2 = 0.4452 | 1194.85 | – | –
x2 = 0.4667 | – | 1142 | –
x2 = 0.4983 | 1153.02 | – | –
x2 = 0.4998 | – | – | 2.24
x2 = 0.5478 | – | – | 2.485
x2 = 0.5495 | 1114.05 | – | –
x2 = 0.5531 | – | 1169 | –
x2 = 0.587 | – | – | 2.703
x2 = 0.5894 | – | 1178 | –
x2 = 0.5995 | 1077.22 | – | –
x2 = 0.6488 | 1042 | – | –
x2 = 0.6507 | – | 1200 | –
x2 = 0.6969 | 1008.69 | – | –
x2 = 0.6995 | – | – | 3.451
x2 = 0.7002 | – | 1217 | –
x2 = 0.74 | – | – | 3.742
x2 = 0.7932 | 944.69 | – | –
x2 = 0.7954 | – | – | 4.184
x2 = 0.7989 | – | 1252 | –
x2 = 0.8497 | 908.83 | – | –
x2 = 0.8969 | – | 1290 | –
x2 = 0.8985 | – | – | 5.06
x2 = 0.8986 | 878.72 | – | –

ClC(Cl)=C(Cl)Cl [tetrachloroethene]
[2]
Settings | mass density [kg/m3] | speed of sound [m/s] | viscosity [mPa·s]
– | 1614.49 | 1039 | 0.847

CCCCCCCO [heptan-1-ol] + ClC(Cl)=C(Cl)Cl
Settings | speed of sound [m/s]
[1], x1 = 1 | 1329

CC1CCCCC1 [methylcyclohexane]
[2]
Settings | mass density [kg/m3] | speed of sound [m/s] | viscosity [mPa·s]
– | 764.99 | 1209 | 0.684

CC1CCCCC1 [methylcyclohexane] + ClC(Cl)=C(Cl)Cl
Settings | speed of sound [m/s]
[1], x2 = 0 | 1215
